Test results from article PMC6858451, “Rhesus Theta Defensin 1 Promotes Long Term Survival in Systemic Candidiasis by Host Directed Mechanisms” (Scientific Reports, 2019).
Bridge positions count the residues as written; N and C are the ends. Peptide text beside a SMILES is read from it.

Tests used:
[1] = tested on: C. albicans 53264 biofilms; assay: Biofilm XTT metabolic assay; assay type: cell-based; settings: pre-adhesion, 2 h adherent and 24 h mature biofilms
Method: The antifungal activities of RTD-1, caspofungin and fluconazole were evaluated against biofilms of C. albicans SC5314 and 53264 essentially as described by Pierce et al.[67]. Briefly, biofilms established for 0 h (preadhesion), 2 h (adherent), or 24 h (mature) were developed by adding 1 × 10^5 yeast cells in 50 or 100 µl of RPMI-1640 to wells of flat-bottom 96-well microtiter plates (Costar, Corning, NY). Fifty or 100 µl aliquots of serial 2-fold dilutions of peptide or antifungal drugs were added to wells in triplicate and incubated for 24 h or 48 h prior to analysis of biofilm metabolic activities. Concentrations of reagents used were as follows: RTD-1 - 0.09 – 100 µg/ml (0.05–48 µM), Fluco – 1–250 µg/ml (3.3–816.3 µM); Caspo- 0.003–8 µg/ml ([…]–7.3 µM). Analysis of the effect of each agent on Candida biofilms was performed using an XTT colorimetric assay. One hundred µl of 1 µM XTT/menadione added to each biofilm well, plates were incubated in the dark for 3 h at 37 °C, and 80 µl of supernatant was transferred to a new 96-well flat-bottom microtiter plate (Greiner Bio-one, Monroe, NC). Absorbance was measured at 490 nm on a SpectraMax® i3x (Molecular Devices). Readings were plotted as average of triplicates after subtracting the corresponding values for negative controls (XTT/menadione only).

[2] = cited from earlier work

CC[C@H](C)[C@@H]1NC(=O)[C@@H]2CSSC[C@H](NC(=O)[C@H](CCCNC(=N)N)NC(=O)[C@@H]3CSSC[C@H](NC1=O)C(=O)N[C@@H]([C@@H](C)O)C(=O)N[C@@H](CCCNC(=N)N)C(=O)NCC(=O)N[C@@H](Cc1ccccc1)C(=O)N3)C(=O)N[C@@H](CC(C)C)C(=O)N[C@H]1CSSC[C@H](NC(=O)[C@H](C(C)C)NC(=O)CNC(=O)[C@H](CCCNC(=N)N)NC(=O)[C@H](CCCNC(=N)N)NC1=O)C(=O)N[C@@H](CCCNC(=N)N)C(=O)N2 [RTD-1, Rhesus theta (θ) defensin-1] (cyclo(GFCRCLCRRGVCRCICTR); disulfide 3-16, 5-14, 7-12 (inferred); ring closure inferred)
biofilm inhibition (XTT) [1]: inhibited biofilm formation
immunogenicity [2]: non-immunogenic
